# Test results as given in US11407736B2 (priority 2019, dated 2022).
# Structures can show the parent of a compound that is named as a salt. Where two headings read alike, the source gives them in different places.
# Assays:
# RIPK1 = RIPK1 (Homo sapiens (Human), UniProt Q13546); experiment: RIPK1 ADP-Glo biochemical kinase assay
# Procedure: The final reaction volume was 5.0ul.
# Adding 5 μl of ADP-Glo™ terminated the reaction.
# U937 cells = experiment: U937 cell necroptosis assay (TNFa + zVAD, CellTiter-Glo); format: cell-based, human; conditions: TNFa + zVAD, read-out: U937 Zvad TNF CTG Recovery, U937, TNFa + zVAD (IC50)
# Summary of the method: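 Human U937 and murine L929 cells in RPMI 1640/10% FBS were pre-incubated 1 h at 37 °C with serially diluted compound plus zVAD-fmk (U937 plated with 60 uM, L929 medium with 40 uM), then stimulated with 2 ng/mL TNFa (final). Viability read by CellTiter-Glo luminescence after 18 h.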
# L929 cells = experiment: L929 cell necroptosis assay (TNFa + zVAD, CellTiter-Glo); format: cell-based, murine; conditions: TNFa + zVAD, read-out: L929-CTG-recovery, L929, TNFa + zVAD (IC50)
# Summary of the method: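 Murine L929 cells, plated 18 h beforehand at 10K cells/well in RPMI 1640 with 10% FBS, were switched to medium containing 40 uM zVAD-fmk and given compound from 4-fold serial dilutions. Viability after 18 h of TNFa stimulation at 37° C was read by CellTiter-Glo luminescence.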
# [1] = read-out: RIPK1 ADP-Glo Kinase (IC50)
# [2] = Homo sapiens, U-937, U937 cells
# Chain of RIPK1 (Q13546 whole entry, species assumed): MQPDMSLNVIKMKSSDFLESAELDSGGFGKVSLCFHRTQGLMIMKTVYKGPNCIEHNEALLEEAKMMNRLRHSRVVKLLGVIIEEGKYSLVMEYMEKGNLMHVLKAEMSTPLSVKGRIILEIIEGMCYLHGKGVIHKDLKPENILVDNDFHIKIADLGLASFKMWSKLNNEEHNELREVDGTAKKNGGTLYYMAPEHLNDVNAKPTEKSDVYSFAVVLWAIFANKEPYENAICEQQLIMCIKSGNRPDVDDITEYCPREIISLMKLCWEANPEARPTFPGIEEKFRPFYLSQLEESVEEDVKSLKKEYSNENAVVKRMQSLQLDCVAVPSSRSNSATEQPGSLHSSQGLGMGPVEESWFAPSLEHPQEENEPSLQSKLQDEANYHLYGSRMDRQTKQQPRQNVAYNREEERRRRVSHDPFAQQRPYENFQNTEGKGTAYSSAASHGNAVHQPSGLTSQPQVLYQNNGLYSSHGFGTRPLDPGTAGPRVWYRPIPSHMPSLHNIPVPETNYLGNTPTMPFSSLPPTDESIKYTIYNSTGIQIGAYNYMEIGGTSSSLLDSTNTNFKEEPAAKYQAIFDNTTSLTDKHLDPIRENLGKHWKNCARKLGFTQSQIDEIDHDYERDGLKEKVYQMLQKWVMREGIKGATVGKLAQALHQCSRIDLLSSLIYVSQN
SMILES,IC50 (RIPK1; [1]),IC50 (U937 cells; [2]),"IC50 (L929 cells; Mus musculus, L929, L929 cells)",IC50 (U937 cells; U937 cells),IC50 (L929 cells; L929 cells),"IC50 (L929 cells; Mus musculus, L929 cells)",IC50 (RIPK1)
"CN1C(=O)[C@@H](NC(=O)c2cc(Oc3ccc(F)cc3F)ccn2)COc2ccc(C#CC(C)(C)C)cc21 [Compound I-104, (S)-4-(2,4-difluorophenoxy)-N-(7-(3,3-dimethylbut-1-yn-1-yl)-5-methyl-4-oxo-2,3,4,5-tetrahydrobenzo[b][1,4]oxazepin-3-yl)picolinamide]",581 nM,224 nM,1820 nM,,,,
"C[C@H](NC(=O)OC(C)(C)C)C(=O)OCC(C)(C)C#Cc1ccc2c(c1)N(C)C(=O)[C@@H](NC(=O)c1cc(Oc3ccccc3)ccn1)CO2 [Compound I-141, tert-butyl ((S)-1-((2,2-dimethyl-4-((S)-5-methyl-4-oxo-3-(4-phenoxypicolinamido)-2,3,4,5-tetrahydrobenzo[b][1,4]oxazepin-7-yl)but-3-yn-1-yl)oxy)-1-oxopropan-2-yl)-12-azanecarboxylate]",414 nM,,,2.2 nM,120 nM,,
"CN1C(=O)[C@@H](NC(=O)c2n[nH]c(Cc3ccccc3)n2)COc2ccc(C#C[C@@]3(O)CO[C@@H]4[C@@H](O)CO[C@@H]43)cc21 [Compound I-75, 5-benzyl-N—((S)-7-(((3R,3aS,6S,6aR)-3,6-dihydroxyhexahydrofuro[3,2-b]furan-3-yl)ethynyl)-5-methyl-4-oxo-2,3,4,5-tetrahydrobenzo[b][1,4]oxazepin-3-yl)-1H-1,2,4-triazole-3-carboxamide]",54.6 nM,8.3 nM,1.4 nM,,,,
"CN1C(=O)[C@@H](NC(=O)c2cc(Oc3ccccc3)ccn2)COc2ccc(N3CCC4(CCOCC4)C3)cc21 [II-31, (S)—N-(5-methyl-4-oxo-7-(8-oxa-2-azaspiro[4.5]decan-2-yl)-2,3,4,5-tetrahydrobenzo[b][1,4]oxazepin-3-yl)-4-phenoxypicolinamide]",36.3 nM,8 nM,,,,654 nM,
"CN1C(=O)[C@@H](NC(=O)c2cc(Oc3ccccc3)ccn2)COc2ccc(CN3CCC4(CCOCC4)CC3)cc21 [Compound I-149, (S)—N-(7-((3-oxa-9-azaspiro[5.5]undecan-9-yl)methyl)-5-methyl-4-oxo-2,3,4,5-tetrahydrobenzo[b][1,4]oxazepin-3-yl)-4-phenoxypicolinamide]",,30 nM,11600 nM,,,,39.6 nM
"CN1C(=O)[C@@H](NC(=O)c2n[nH]c(Cc3ccccc3)n2)COc2ccc(C#CC(C)(C)O)cc21 [Compound I-36, (S)-5-benzyl-3-((7-(3-hydroxy-3-methylbut-1-yn-1-yl)-5-methyl-4-oxo-2,3,4,5-tetrahydrobenzo[b][1,4]oxazepin-3-yl)carbamoyl)-1,2,4-triazol-1-ide]",33.8 nM,,,2.2 nM,1.4 nM,,
"CN1C(=O)[C@@H](NC(=O)c2cc(Oc3ccccc3)ccn2)COc2ccc(C#CC3(O)CCN(C(=O)c4cc(Oc5ccccc5)ccn4)CC3)cc21 [Compound I-131, (S)—N-(7-((4-hydroxy-1-(4-phenoxypicolinoyl)piperidin-4-yl)ethynyl)-5-methyl-4-oxo-2,3,4,5-tetrahydrobenzo[b][1,4]oxazepin-3-yl)-4-phenoxypicolinamide]",446 nM,3.7 nM,65.8 nM,,,,
"CN1C(=O)[C@@H](NC(=O)c2n[nH]c(Cc3ccccc3)n2)COc2ccc(C#C[C@@]3(O)CO[C@@H]4[C@@H](OC(=O)c5ccccc5)CO[C@@H]43)cc21 [Compound I-74, (3S,3aR,6R,6aS)-6-(((S)-3-(5-benzyl-1H-1,2,4-triazole-3-carboxamido)-5-methyl-4-oxo-2,3,4,5-tetrahydrobenzo[b][1,4]oxazepin-7-yl)ethynyl)-6-hydroxyhexahydrofuro[3,2-b]furan-3-yl benzoate]",51.8 nM,1.4 nM,0.2 nM,,,,
"CN1C(=O)[C@@H](NC(=O)c2n[nH]c(Cc3ccccc3)n2)COc2ccc(CN3CCn4nc(C(F)(F)F)nc4C3)cc21 [Compound I-40, (S)-5-benzyl-N-(5-methyl-4-oxo-7-((2-(trifluoromethyl)-5,6-dihydro-[1,2,4]triazolo[1,5-a]pyrazin-7(8H)-yl)methyl)-2,3,4,5-tetrahydrobenzo[b][1,4]oxazepin-3-yl)-1H-1,2,4-triazole-3-carboxamide]",88.7 nM,2.3 nM,0.3 nM,,,,
"CN1C(=O)[C@@H](NC(=O)n2cc(Cc3ccccc3)cn2)COc2ccc(C#Cc3cccnc3)cc21 [Compound I-214, (S)-4-Benzyl-N-(5-methyl-4-oxo-7-(pyridin-3-ylethynyl)-2,3,4,5-tetrahydrobenzo[b][1,4]oxazepin-3-yl)-1H-pyrazole-1-carboxamide]",76.2 nM,4 nM,352 nM,,,,
"CN1C(=O)[C@@H](NC(=O)n2cc(Cc3ccc(F)cc3F)cn2)COc2ccc(C#CC(C)(C)CN)cc21 [Compound I-241, (S)—N-(7-(4-Amino-3,3-dimethylbut-1-yn-1-yl)-5-methyl-4-oxo-2,3,4,5-tetrahydrobenzo[b][1,4]oxazepin-3-yl)-4-(2,4-difluorobenzyl)-1H-pyrazole-1-carboxamide hydrochloride]",,62.6 nM,2100 nM,,,,50.1 nM
"CN1C(=O)[C@@H](NC(=O)n2cc(Cc3ccc(F)cc3F)cn2)COc2ccc(C#CC(C)(C)CNC(=O)OC(C)(C)C)cc21 [Compound I-240, Tert-butyl (S)-(4-(3-(4-(2,4-difluorobenzyl)-1H-pyrazole-1-carboxamido)-5-methyl-4-oxo-2,3,4,5-tetrahydrobenzo[b][1,4]oxazepin-7-yl)-2,2-dimethylbut-3-yn-1-yl)carbamate]",,15.1 nM,944 nM,,,,265 nM
"CN1C(=O)[C@@H](NC(=O)n2cc(Cc3ccccc3)cn2)COc2ccc(N3CC4(CCOCC4)C3)cc21 [Compound I-217, (S)-4-Benzyl-N-(5-methyl-4-oxo-7-(7-oxa-2-azaspiro[3.5]nonan-2-yl)-2,3,4,5-tetrahydrobenzo[b][1,4]oxazepin-3-yl)-1H-pyrazole-1-carboxamide]",,0.5 nM,597 nM,,,,23.9 nM

# Continued, in another order:
IC50 (RIPK1; [1]),SMILES,IC50 (U937 cells; [2]),"IC50 (L929 cells; Mus musculus, L929, L929 cells)",IC50 (U937 cells; U937 cells),IC50 (L929 cells; L929 cells),"IC50 (L929 cells; Mus musculus, L929 cells)",IC50 (RIPK1)
30.8 nM,CN1C(=O)[C@@H](NC(=O)c2cc(Oc3ccccc3)ccn2)COc2ccc(C#CC3(OC(=O)NCCCN4CCOCC4)COC3)cc21 [Compound I-130],1.5 nM,89.5 nM,,,,
15.1 nM,"CN1C(=O)[C@@H](NC(=O)c2cc(Oc3ccccc3F)ccn2)COc2ccc(C#CC3(O)COC3)cc21 [Compound I-112, (S)-4-(2-fluorophenoxy)-N-(7-((3-hydroxyoxetan-3-yl)ethynyl)-5-methyl-4-oxo-2,3,4,5-tetrahydrobenzo[b][1,4]oxazepin-3-yl)picolinamide]",1.1 nM,14.2 nM,,,,
31.2 nM,"CN1C(=O)[C@@H](NC(=O)c2cc(Oc3ccc(F)cc3F)ccn2)COc2ccc(C#CC(C)(C)O)cc21 [Compound I-105, (S)-4-(2,4-difluorophenoxy)-N-(7-(3-hydroxy-3-methylbut-1-yn-1-yl)-5-methyl-4-oxo-2,3,4,5-tetrahydrobenzo[b][1,4]oxazepin-3-yl)picolinamide]",9.3 nM,254 nM,,,,
21.9 nM,"CN1C(=O)[C@@H](NC(=O)c2ncn(Cc3ccccc3)n2)COc2ccc(CCC(N)=O)cc21 [Compound I-32, (S)—N-(7-(3-amino-3-oxopropyl)-5-methyl-4-oxo-2,3,4,5-tetrahydrobenzo[b][1,4]oxazepin-3-yl)-1-benzyl-1H-1,2,4-triazole-3-carboxamide]",2.7 nM,17700 nM,,,,
20.2 nM,"CN1C(=O)[C@@H](NC(=O)c2cc(Oc3ccc(F)cc3F)ccn2)COc2ccc(C#CC3(O)COC3)cc21 [Compound I-114, (S)-4-(2,4-difluorophenoxy)-N-(7-((3-hydroxyoxetan-3-yl)ethynyl)-5-methyl-4-oxo-2,3,4,5-tetrahydrobenzo[b][1,4]oxazepin-3-yl)picolinamide]",4.7 nM,90.4 nM,,,,
35.2 nM,"CN1C(=O)[C@@H](NC(=O)c2cc(Oc3ccccc3)ccn2)COc2ccc(C#CC3(F)COC3)cc21 [Compound I-129, (S)—N-(7-((3-fluorooxetan-3-yl)ethynyl)-5-methyl-4-oxo-2,3,4,5-tetrahydrobenzo[b][1,4]oxazepin-3-yl)-4-phenoxypicolinamide]",0.7 nM,24.1 nM,,,,
27.8 nM,"CN1C(=O)[C@@H](NC(=O)n2cc(Cc3ccc(F)cc3)cn2)COc2ccc(C#CC3(O)CCOCC3)cc21 [Compound I-175, (S)-4-(4-fluorobenzyl)-N-(7-((4-hydroxytetrahydro-2H-pyran-4-yl)ethynyl)-5-methyl-4-oxo-2,3,4,5-tetrahydrobenzo[b][1,4]oxazepin-3-yl)-1H-pyrazole-1-carboxamide]",9 nM,107 nM,,,,
33 nM,"CN1C(=O)[C@@H](NC(=O)n2cc(Cc3ccc(F)cc3)cn2)COc2ccc(C#CC(C)(C)N)cc21 [Compound I-226, (S)—N-(7-(3-amino-3-methylbut-1-yn-1-yl)-5-methyl-4-oxo-2,3,4,5-tetrahydrobenzo[b][1,4]oxazepin-3-yl)-4-(4-fluorobenzyl)-1H-pyrazole-1-carboxamide]",17 nM,1770 nM,,,,
